{"source": "patent US20140274782A1", "about": "“AFFINITY REAGENTS AND METHODS FOR DETECTION, PURIFICATION, AND PROTEOMIC ANALYSIS OF METHYLATED PROTEINS” (The Board of Trustees of the Leland Stanford Junior …, priority 2013, published 2014)", "data": [{"test_system": "3×MBT domain of L3MBTL1", "assay": "SILAC proteomic pull-down 3×MBT vs 3×MBTD355N from 293T nuclear extract, LC-MS/MS", "assay_type": "binding, human", "conditions": "SILAC ratio, 293T nuclear extract pull-down; * = protein identified in only one labeling experiment", "protocol": "Protein pull-downs were performed as described above using 600 μg of nuclear extract prepared with isotopic labels as indicated. After eluting with glutathione, 3×MBT domain was removed by dialysis into high salt and rebinding to GSH-sepharose. Bound proteins were separated by SDS-PAGE and analyzed by in-gel tryptic digest followed by LC-MS/MS. Peptides were identified using MaxQuant version 1.2.2.5 (Cox and Mann (2008) Nat. Biotechnol. 26, 1367-1372) and candidate methylated peptides were verified by manual inspection.\nFor stable isotope labeling by amino acids in cell culture (SILAC) experiments HEK 293T cells were grown for at least six doublings in DMEM for SILAC supplemented with 10% dialyzed fetal bovine serum (FBS), 230 mg/L L-proline and either 100 mg/L each of L-lysine and L-arginine (“light” medium), D4-L-lysine and ^13C6-L-arginine (“medium” media), or ^13C6^15N2-L-lysine and ^13C6^15N4-L-arginine (Thermo Scientific). Heavy methyl labeling used DMEM without L-Methionine or L-Cysteine supplemented with D3^13C-L-Methionine (Sigma), L-Cysteine (Sigma) and 10% dialyzed FBS.\n600 μg of nuclear extract was incubated overnight rotating at 4° C. with 20 μl packed 3×MBT or 3×MBTD355N beads in a total volume of 250 μL with binding buffer. Supernatant was removed and saved for use as a loading control. Beads were washed 4×5 minutes with 0.5 mL binding buffer. Protein was eluted by incubating in 20 μL elution buffer (10 mg/mL glutathione in 50 mM Tris pH 8.0) rotating at 4° C. for four hours. Elutions from 3×MBT and 3×MBTD355N were combined and dialyzed overnight at 4° C. against 10,000× volume of dissociation buffer (50 mM Tris pH 7.5, 750 mM NaCl) in a 0.1 mL Slide-A-Lyzer MINI Dialysis Device with 3.5K molecular weight cutoff (Thermo Scientific). 80 μL of GSH-Sepharose was prepared by washing briefly three times with 0.5 mL binding buffer. Dialyzed proteins were added to the GSH-Sepharose and incubated 4 hours rotating at 4° C. to deplete the GST-fusion domains. Supernatant was transferred to a fresh 1.5 mL tube. Proteins were separated by SDS-PAGE on a 10% polyacrylamide gel and stained using SilverQuest Silver Staining Kit (Life Technologies). Lanes were excised, residual 3×MBT band was removed, and gel was diced into 0.5 mm cubes. Gel pieces were destained and processed by in-gel digestion (Carlson et al. (2011) Science Signaling 4) with sequencing grade trypsin (Promega) and the peptide sample was dried completely in a vacuum centrifuge. To prepare a loading control, 2 μL each of light and heavy nuclear extract were combined, 6 μL of 8M urea was added, proteins were denatured by adding 2 μL of 100 mM dithiothreitol in digest buffer (50 mM ammonium bicarbonate) and heating to 60° C. for 1 hour, cysteine was alkylated by adding 2.2 μL 100 mg/mL iodoacetamide in digest buffer and incubating 1 hour at room temperature in darkness, and proteins were digested by adding 80 μL trypsin (Promega) at 12.5 ng/μL in digest buffer and incubating overnight at room temperature in darkness. Digestion was stopped by adding 10 μL of 10% formic acid.\nEach experiment consisted of two sets of pull-downs: “forward” labeling with 3×MBT incubated with light nuclear extract and 3×MBTD355N with medium extract, and a second “reverse” labeling experiment with the label conditions swapped. Proteins were included in the results if they were quantified in both labeling directions. To determine reproducibility the entire experiment including the label swap was duplicated using independent protein preparations and a mass spectrometer at another institution.\nFor 3×MBT pull-down experiment #1 the gel lane was processed and peptides were loaded off-line onto a first dimension trap column (Waters Xbridge, C18, 10 μm particle size, 100 Å pore size, 5 cm packing length, 150 μm column i.d.). […]", "values": [{"substance": "DNA ligase 1", "Protein Ratio 3xMBT/D355N": 10.7}, {"substance": "MCM7: protein with methylated lysine identified in 3xMBT pull-down", "Protein Ratio 3xMBT/D355N": 6.7}, {"substance": "MSH6: protein with methylated lysine identified in 3xMBT pull-down", "Protein Ratio 3xMBT/D355N": 1.2}, {"substance": "Protein Wiz", "Protein Ratio 3xMBT/D355N": 5.3}, {"substance": "RBM25: protein with methylated lysine identified in 3xMBT pull-down", "Protein Ratio 3xMBT/D355N": 7.7}, {"substance": "SSRP1: protein with methylated lysine identified in 3xMBT pull-down", "Protein Ratio 3xMBT/D355N": 14.6}]}]}
